We go through one molecule from ChEMBL document CHEMBL5370665, “Insight from Linker Investigations: Discovery of a Novel Phenylbenzothiazole Necroptosis Inhibitor Targeting Receptor-Interacting Protein Kinase 1 (RIPK1) from a Phenoxybenzothiazole Compound with Dual RIPK1/3 Targeting Activity” (J Med Chem, 2023).

In series [1] the test system is Mus musculus. The series can be described thus: Anti-inflammatory activity against C57BL/6J mouse model of TNFalpha-induced systemic inflammatory response syndrome (SIRS) assessed as increase in survival rate at 5 mg/kg,po 2 hrs prior to mTNFalpha and z-VAD-FMK stimulation and measured upto 24 hrs. To be noted: time 26 hrs. The format is functional.
Series [2] can be described thus: Acute toxicity in mouse assessed as pathological damage in kidney at 100 to 200 mg/kg,IG and measured after 14 days by H and E staining based microscopy. The format is organism-based. Particulars: in vivo, po, 336 h, dose 100-200 mg/kg, time 14 day.
The test system of series [3] is Mus musculus. The series can be described thus: Anti-inflammatory activity against C57BL/6J mouse model of TNFalpha-induced systemic inflammatory response syndrome (SIRS) assessed as decrease in IL-1beta level in lung at 1.25 to 5 mg/kg,po 2 hrs prior to mTNFalpha and z-VAD-FMK stimulation for 8 hrs by ELISA. The class given is functional, organism-based. To be noted: dose 1.25-5 mg/kg, time 10.0 hrs. Background: An ELISA detects its analyte on a solid surface through an enzyme-linked reagent.

Series [4] is described as follows: Acute toxicity in mouse assessed as death at 100 to 200 mg/kg,IG and measured upto 14 days. The format is organism-based. To be noted: in vivo, po, 336 h, dose 100-200 mg/kg, time < 14 day.
For series [5], the system named is Mus musculus. The series can be described thus: Anti-inflammatory activity against C57BL/6J mouse model of TNFalpha-induced systemic inflammatory response syndrome (SIRS) assessed as increase in survival rate at 1.25 mg/kg,po 2 hrs prior to mTNFalpha and z-VAD-FMK stimulation and measured upto 24 hrs. To be noted: time 26 hrs. The format is functional.
For series [6], the system named is Mus musculus. The series can be described thus: Anti-inflammatory activity against C57BL/6J mouse model of TNFalpha-induced systemic inflammatory response syndrome (SIRS) assessed as decrease in serum IL-1beta level at 1.25 to 5 mg/kg,po 2 hrs prior to mTNFalpha and z-VAD-FMK stimulation for 8 hrs by ELISA. The class given is functional, organism-based. To be noted: dose 1.25-5 mg/kg, time 10.0 hrs.

A short description of series [7]: Acute toxicity in mouse assessed as pathological damage in lung at 100 to 200 mg/kg,IG and measured after 14 days by H and E staining based microscopy. The format is organism-based. Particulars: in vivo, po, 336 h, dose 100-200 mg/kg, time 14 day.
Series [8] deals with Mus musculus. The series can be described thus: Anti-inflammatory activity against C57BL/6J mouse model of TNFalpha-induced systemic inflammatory response syndrome (SIRS) assessed as decrease in IL-6 level in kidney at 1.25 to 5 mg/kg,po 2 hrs prior to mTNFalpha and z-VAD-FMK stimulation for 8 hrs by ELISA. The format is functional, organism-based. Particulars: dose 1.25-5 mg/kg, time 10.0 hrs.

Series [9] can be described thus: Metabolic stability in mouse liver mitochondria assessed as degradation rate at 4 micromol/L and measured upto 240 mins. To be noted: 4 h, 4 µM, dose 4 µmol/L. The class given is ADME.
Series [10] can be described thus: Acute toxicity in mouse assessed as pathological damage in spleen at 100 to 200 mg/kg,IG and measured after 14 days by H and E staining based microscopy. The class given is organism-based. Particulars: in vivo, po, 336 h, dose 100-200 mg/kg, time 14 day.
Another series has as its system L929. The series can be described thus: Anti-necroptic activity against mouse L929 cells assessed as inhibition of […] (mouse TNFalpha, z-VAD-FMK) induced necroptosis at 15 to 500 nM pretreated with compound followed by TZ stimulation for 6 hrs by CellTiter-Glo Luminescent cell viability assay. The class given is functional, cell-based. To be noted: dose lower […], dose upper 500.0 nM. Background: ATP-based viability assays read luminescence as a measure of living cells.

Series [11] has as its system Mus musculus. The series can be described thus: Anti-inflammatory activity against C57BL/6J mouse model of TNFalpha-induced systemic inflammatory response syndrome (SIRS) assessed as decrease in IL-6 level in brain at 1.25 to 5 mg/kg,po 2 hrs prior to mTNFalpha and z-VAD-FMK stimulation for 8 hrs by ELISA. The format is functional, organism-based. Particulars: dose 1.25-5 mg/kg, time 10.0 hrs.

Series [12] relates to Mus musculus. The series can be described thus: Anti-inflammatory activity against C57BL/6J mouse model of TNFalpha-induced systemic inflammatory response syndrome (SIRS) assessed as decrease in IL-1beta level in brain at 1.25 to 5 mg/kg,po 2 hrs prior to mTNFalpha and z-VAD-FMK stimulation for 8 hrs by ELISA. To be noted: dose 1.25-5 mg/kg, time 10.0 hrs. The format is functional, organism-based.

The subject of series [13] is Mus musculus. The series can be described thus: Anti-inflammatory activity against C57BL/6J mouse model of TNFalpha-induced systemic inflammatory response syndrome (SIRS) assessed as decrease in IL-1beta level in kidney at 1.25 to 5 mg/kg,po 2 hrs prior to mTNFalpha and z-VAD-FMK stimulation for 8 hrs by ELISA. The format is functional, organism-based. Particulars: dose 1.25-5 mg/kg, time 10.0 hrs.

Series [14] has as its system Mus musculus. The series can be described thus: Anti-inflammatory activity against C57BL/6J mouse model of TNFalpha-induced systemic inflammatory response syndrome (SIRS) assessed as decrease in IL-1beta level in liver at 1.25 to 5 mg/kg,po 2 hrs prior to mTNFalpha and z-VAD-FMK stimulation for 8 hrs by ELISA. The format is functional, organism-based. Particulars: dose 1.25-5 mg/kg, time 10.0 hrs.

Series [15] deals with Mus musculus. The series can be described thus: Anti-inflammatory activity against C57BL/6J mouse model of TNFalpha-induced systemic inflammatory response syndrome (SIRS) assessed as increase in survival rate at 2.5 mg/kg,po 2 hrs prior to mTNFalpha and z-VAD-FMK stimulation and measured upto 24 hrs. The class given is functional. To be noted: time 26 hrs.
The subject of series [16] is HT-29. The series can be described thus: Anti-apoptotic activity against human HT-29 cells assessed as inhibition of TS (human TNFalpha, Smac mimetic) induced apoptosis upto 1 uM pretreated with compound followed […] for 24 hrs by CellTiter-Glo Luminescent cell viability assay. The format is functional, cell-based.
The subject of series [17] is HT-29. The series can be described thus: Anti-necroptic activity against human HT-29 cells assessed as inhibition of TCZ (human TNFalpha, cycloheximide and z-VAD-FMK) induced necroptosis at 125 to 500 nM pretreated with compound followed by TCZ stimulation for 18 hrs by CellTiter-Glo Luminescent cell viability assay. To be noted: dose 125-500 nM. The format is functional, cell-based.

Series [18] has as its target T1, Receptor-interacting serine/threonine-protein kinase 1 (Homo sapiens) (UniProt Q13546).
T1 sequence (whole entry): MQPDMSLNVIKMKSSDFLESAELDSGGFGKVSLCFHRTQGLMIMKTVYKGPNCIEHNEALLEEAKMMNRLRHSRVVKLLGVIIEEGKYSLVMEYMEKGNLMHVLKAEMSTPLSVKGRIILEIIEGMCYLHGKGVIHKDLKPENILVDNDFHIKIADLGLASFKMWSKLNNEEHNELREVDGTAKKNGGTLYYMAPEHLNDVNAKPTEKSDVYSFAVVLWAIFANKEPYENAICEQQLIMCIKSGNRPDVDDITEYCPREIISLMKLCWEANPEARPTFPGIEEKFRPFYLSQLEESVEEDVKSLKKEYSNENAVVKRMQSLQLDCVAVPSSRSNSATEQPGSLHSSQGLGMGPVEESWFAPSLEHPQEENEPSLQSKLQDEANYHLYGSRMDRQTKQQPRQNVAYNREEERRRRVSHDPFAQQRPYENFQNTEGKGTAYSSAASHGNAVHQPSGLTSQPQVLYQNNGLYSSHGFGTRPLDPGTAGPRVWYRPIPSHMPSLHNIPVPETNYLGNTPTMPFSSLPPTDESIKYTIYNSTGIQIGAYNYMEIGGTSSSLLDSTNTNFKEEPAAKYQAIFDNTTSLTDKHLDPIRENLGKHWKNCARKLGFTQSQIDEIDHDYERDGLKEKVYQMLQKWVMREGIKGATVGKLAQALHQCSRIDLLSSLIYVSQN
The series can be described thus: Inhibition of RIPK1 phosphorylation in TSZ induced human HT-29 cells at 1 uM pretreated with compound followed by TSZ stimulation for 6 hrs by Western blot analysis. The format is cell-based. A general note: Immunoblotting shows a protein as a band on a membrane.

The subject of series [19] is Mus musculus. The series can be described thus: Anti-inflammatory activity against C57BL/6J mouse model of TNFalpha-induced systemic inflammatory response syndrome (SIRS) assessed as decrease in IL-1beta level in heart at 1.25 to 5 mg/kg,po 2 hrs prior to mTNFalpha and z-VAD-FMK stimulation for 8 hrs by ELISA. Particulars: dose 1.25-5 mg/kg, time 10.0 hrs. The format is functional, organism-based.

Activity calls are given as the source filed them. The rule behind the calls is not given here.

In the case of `O=C(Cc1cccc(OC(F)(F)F)c1)Nc1cc(-c2ccc3nc(NC(=O)C4CC4)sc3c2)ccc1F`, the survival at 5 mg/kg in the series on Mus musculus [1] was 100%. In addition, the Activity entry in [2] was “Non-Toxic”; in series [4], “Non-Toxic”; in series [7], “Non-Toxic”; in the series with Mus musculus [8], “Dose-Dependent Effect”; in series [10] it was “Non-Toxic”; with Mus musculus [11] it was “Dose-Dependent Effect”. The Activity entry in the series with HT-29 [17] was “Dose-Dependent Effect”. Moreover, the outcome with Mus musculus [3], with Mus musculus [6] and in the series with L929 was Active. Also, the survival at 1.25 mg/kg in the series on Mus musculus [5] was determined as 70%. Moreover, the Stability result in [9] is “Stable”. Moreover, the result in the series on Mus musculus [12], in the series on Mus musculus [13], in the series on Mus musculus [14], with HT-29 [16] and in the series with Mus musculus [19] was inactive. Also, the survival at 2.5 mg/kg with Mus musculus [15] amounted to 80%. Further, the inhibition result in series [18] is “Active”.
